According to the OPERA property sets (Mansouri et al. 2018):

Going from `Cc1ccc([N+](=O)[O-])cc1N` to `O=[N+]([O-])c1cccc(Cl)c1`, the logP rises from 1.87 to 2.46.

Compared with `C=CCC1(CC=C)C(=O)NC(=O)N(C)C1=O`, `CCC1=C(N2CC2)C(=O)C(C)=C(N2CC2)C1=O` is lower in logP: 1.55 for the first, 1.35 for the second.

Compared with `ClC(Cl)=Nc1ccccc1`, `ClC(Cl)(Cl)Sc1ccccc1` is higher in logP: 2.54 for the first, 3.78 for the second.

First: COc1ccc2cc(C(C)C(=O)OCC(=O)N(CCO)CCO)ccc2c1 (stereo not given)
Second: COc1ccc(-c2nc3ccncc3n2C)c(OC)c1
The logP of the first is lower: 1.7 for the first, 2.68 for the second.

Compared with `CCOC(=O)CBr`, `CCCC(N)C(=O)O` (stereo not given) is lower in logP: 1.12 for the first, -2.11 for the second.

Compared with `CNC1=CC(=O)C(NC)=CC1=O`, `CCC(C)c1ccccc1OC(=O)NC` (stereo not given) is higher in logP: 0.34 for the first, 2.78 for the second.

Compared with `CC(F)F`, `CCCNc1nc(NCC)nc(SC(F)F)n1` is higher in logP: 0.75 for the first, 3.8 for the second.

First: N#CCc1ccsc1
Second: CN(C)C(=O)OCc1ccc(C#N)cc1
The logP of the first is lower: 1.26 for the first, 1.67 for the second.

Going from `Cc1ccc2cc3c(ccc4ccccc43)c3c2c1CC3` to `Clc1cc2ccccc2cc1Cl`, the logP falls from 6.42 to 4.42.

Going from `OCCOCCOCCN1CCC(=C(c2ccccc2)c2ccccc2)CC1` to `O=C(/C=C/c1ccccc1)c1ccccc1`, the logP falls from 3.78 to 3.08.

Compared with `ClC(Cl)=C(Cl)Cl`, `Oc1cc(Cl)c(Cl)c(Cl)c1Cl` is higher in logP: 3.4 for the first, 4.21 for the second.

Going from `CC(=O)Nc1ccc(O)c(C(C)(C)C)c1` to `CC(C)(C)c1ccccc1OCC(=O)O`, the logP rises from 2.36 to 3.33.

First: C1OC1C1CO1 (stereo not given)
Second: C1COCCO1
The logP of the first is lower: -0.52 for the first, -0.27 for the second.

Going from `CCC(=O)OC1(C(=O)CCl)C(C)CC2C3CCC4=CC(=O)C=CC4(C)C3C(O)CC21C` (stereo not given) to `C[C@]12CCC(=O)C=C1CC[C@@H]1[C@@H]2C(=O)C[C@@]2(C)[C@H]1CC[C@]2(O)C(=O)CO`, the logP falls from 3.34 to 1.47.

Going from `COC(=O)CCCCC(=O)OC` to `CCCCCCNC(=O)c1[nH]nc(C)c1[N+](=O)[O-]`, the logP rises from 1.03 to 2.46.

Going from `O=C(c1ccco1)C(O)c1ccco1` (stereo not given) to `NNC(=O)c1ccccc1Cl`, the logP falls from 0.54 to 0.14.

Going from `NC(=O)c1cccc([N+](=O)[O-])c1` to `NS(=O)(=O)c1ccccc1[N+](=O)[O-]`, the logP falls from 0.77 to 0.34.

Going from `CCOC(=O)C(=Cc1cccc(OCC)c1)C(=O)OCC` to `CNC(=O)Oc1cccc(C=O)c1`, the logP falls from 3.39 to 0.92.

Going from `COc1cc(OC)cc(C(=O)O)c1` to `COc1cc(O)cc(OC)c1`, the logP falls from 2.19 to 1.64.

Compared with `NC(=O)CCNC(=O)C(F)(F)Cn1ccnc1[N+](=O)[O-]`, `CC(=O)NCc1cc(C(=O)NN)ccn1` is lower in logP: -0.95 for the first, -1.58 for the second.

Compared with `CC1(C)S[C@@H]2[C@H](NC(=O)C(C(=O)Oc3ccc4c(c3)CCC4)c3ccccc3)C(=O)N2[C@H]1C(=O)O` (stereo not given in full), `O=C1c2ccccc2C(=O)C1c1ccccc1` is lower in logP: 3.77 for the first, 2.9 for the second.

Going from `CNCCOc1cc(C)c(O)cc1C(C)C` to `CNC(=O)Oc1ccc2c(c1)[C@]1(C)CCN(C)[C@@H]1N2C`, the logP falls from 2.35 to 1.58.

Compared with `Cc1cccc(CO)c1`, `OCc1ccncc1` is lower in logP: 1.6 for the first, 0.06 for the second.

Going from `CN1CCCC1` to `O=C(CN1CCCCC1)Nc1ccc(F)cc1`, the logP rises from 0.92 to 2.7.

Going from `COCOC` to `COc1c(O)c(C)c(C)c(O)c1OC`, the logP rises from 0 to 1.6.

Compared with `c1ncc2nc[nH]c2n1`, `O=c1[nH]cnc2ccccc12` is higher in logP: -0.37 for the first, 0.77 for the second.

Compared with `Oc1ccc(C(c2ccccc2)c2ccc(O)cc2)cc1`, `Oc1cnc2ccccc2c1` is lower in logP: 4.3 for the first, 2.08 for the second.

Compared with `CC1(C)N=C(N)N=C(N)N1c1ccccc1`, `Cn1nc2ccccc2n1` is higher in logP: 0.28 for the first, 1.64 for the second.

`O=[N+]([O-])c1ccccc1Br` and `Cc1ccccc1C=C[N+](=O)[O-]` are within 0.2 log units of each other in logP: 2.52 for the first, 2.63 for the second.

Compared with `Nc1ccc(S(=O)(=O)Nc2ccc(S(N)(=O)=O)cc2)cc1`, `CN(C)C(=O)Nc1cccc(CCc2ccccc2)c1` is higher in logP: 0.35 for the first, 3.21 for the second.

Compared with `CCC(C)NC(=O)C(=Cc1ccccc1)SC` (stereo not given), `NC(=O)c1ccccc1NC(=O)C(Cl)Cl` is lower in logP: 3.03 for the first, 1.68 for the second.

Going from `C#CC(C)(C)O` to `CSc1nnc(C(C)(C)C)c(=O)n1N`, the logP rises from 0.28 to 1.7.

First: O=C(O)COc1cccc(C(F)(F)F)c1
Second: FC(F)(F)c1ccccc1N=C1NCCN1
The logP of the first is higher: 2.36 for the first, 1.42 for the second.

First: Nc1cc(Cl)c(Cl)c(Cl)c1
Second: COP(=S)(NC(C)C)Oc1ccc(Cl)cc1Cl (stereo not given)
The logP of the first is lower: 3.32 for the first, 4.3 for the second.

Compared with `CCC(CC)C(=O)NC(CO)C(O)c1ccc([N+](=O)[O-])cc1` (stereo not given), `O=[N+]([O-])c1cc[n+]([O-])cc1` is lower in logP: 1.71 for the first, -0.55 for the second.

`CCc1cccc(N2C(=O)CCC2=O)c1` and `COc1ccc(C=O)cc1O` are within 0.2 log units of each other in logP: 1.04 for the first, 0.97 for the second.

Compared with `CCCCCCCCOc1ccc(NC(=O)OCCN2CCCCC2)cc1`, `CCCCCCCCCCCCCC` is higher in logP: 6.44 for the first, 7.2 for the second.

Going from `CCCCCC[N+](=O)[O-]` to `CCNc1nc(Cl)nc(N(CC)CC)n1`, the logP rises from 2.7 to 3.34.

Compared with `Oc1c(F)c(F)c(F)c(F)c1F`, `Cc1[nH]cnc1CSCCNc1cc[nH]c(=O)n1` is lower in logP: 3.23 for the first, -0.4 for the second.

Going from `CCCC(=O)O[C@H]1[C@H](C)O[C@@H](O[C@H]2[C@H](N(C)C)[C@@H](O)[C@H](O[C@H]3[C@@H](CC=O)C[C@@H](C)[C@@H](O)C=CC=CC[C@@H](C)OC(=O)C[C@@H](O)[C@@H]3OC)O[C@@H]2C)C[C@@]1(C)OC(=O)CC` to `CC12CC(O)C3C(CCC4(O)CC(O)CC(O)C34CO)C1(O)CCC2C1=CC(=O)OC1` (stereo not given), the logP falls from 3.08 to -0.02.
